According to patent US8377981B2, “CBI derivatives subject to reductive activation” (The Scripps Research Institute, priority 2007, dated 2013):
Where two headings read alike, the source gives them in different places.

Key:
[1] = Stability in human plasma; format: in vitro ADME; conditions: 50 μg/100 μL, 10% DMSO, release of free drug 2
[2] = test system: H460 (mitomycin-sensitive, expresses high levels of DT-Diaphorase) non small cell lung cancer (NSCLC) cell line; experiment: Cytotoxic activity, H460 cell line; format: cell-based; conditions: for IC50: Homo sapiens, NCI-H460, read-out: IC50 (nM) H460
Experimental: (§1) The O-amino phenol derivatives bearing the N—O prodrug linkages and the various N-acyl substituents were assayed for cytotoxic activity alongside the parent drugs CBI-TMI (2) (Boger, D. L.; Yun, W. J. Am. Chem. Soc. 1994, 116, 7996) and mitomycin C (Boger, D. L.; et al. Bioorg. Med. Chem. Lett. 1991, 1, 115; Boger, D. L.; et al. Bioorg. Med. Chem. 1995, 3, 1429) as well as the two control standards 9 and 10 incapable of free phenol release. Three cell lines were examined including a standard L1210 cell line (mouse leukemia) as well as the mitomycin-sensitive (H460, expresses high levels of DT-Diaphorase) and resistant (H596, lacks DT-Diaphorase) non small cell lung cancer (NSCLC) cell lines, with results shown in the Table below.

[3] = test system: L1210 cell line (mouse leukemia); experiment: Cytotoxic activity, L1210 cell line; format: cell-based
Experimental: as §1

[4] = test system: H596 (mitomycin-resistant, lacks DT-Diaphorase) non small cell lung cancer (NSCLC) cell line; experiment: Cytotoxic activity, H596 cell line; format: cell-based; conditions: Homo sapiens, NCI-H596, read-out: IC50 (nM) H596
Experimental: as §1

[5] = Stability in pH 7.0 phosphate buffer; format: physicochemical; conditions: HPLC, UV; monitored 72 hours
[6] = Chemical stability and reactivity of the N-acyl O-amino phenol derivatives; format: physicochemical; conditions: for stability to acidic conditions: TFA-CH2Cl2, 4 N HCl-EtOAc
[7] = test system: w794 duplex DNA; experiment: DNA alkylation selectivity and efficiency (thermally-induced strand cleavage); format: biochemical
Experimental: FIG. 1 illustrates the results of an electrophoresis gel with 8% denaturing PAGE and autoradiography. Thermally-induced strand cleavage of w794 DNA; DNA-agent incubation at 4° C. for 18 hours, removal of unbound agent by EtOH precipitation, and 30 minutes of thermolysis (100° C.) followed by 8% denaturing PAGE and autoradiography. Lane 1, control DNA; lanes 2-5, Sanger G, C, A, and T sequencing reactions; lanes 6-8, 2 (1×10^−4 to 1×10^−6); lanes 9-11, 10 (1×10^−1 to 1×10^−3); lanes 12-14, 4 (1×10^−1 to 1×10^−3), lanes 15-17, 9 (1×10^−1 to 1×10^−3).
The DNA alkylation properties of 4 were examined alongside the parent drug CBI-TMI (2), and the two control standards 9 and 10 (incapable of spirocyclization) within w794 duplex DNA (Boger, D. L.; et al. Tetrahedron 1991, 47, 2661) for which results for an extensive series of duocarmycin analogues have been reported. The sites of DNA alkylation and its efficiency were directly assessed by thermally-induced singly 5′ end-labeled duplex DNA strand cleavage following incubation with the agents ([…], natural enantiomers examined).
The DNA alkylation reactions were performed by treatment of 4.5 μL of singly ^32P 5′-end-labeled double-stranded w794 DNA (Boger, D. L.; et al. Tetrahedron 1991, 47, 2661) in TE buffer (10 mM Tris, 1 mM EDTA, pH 7.6) with 0.5 μL of agent in EtOH (at the specified concentration). […] Unbound agent was removed by EtOH precipitation of DNA (0.5 μL of 3.0 M sodium acetate and 12.5 μL of cold absolute EtOH) and the solutions were stored at −78° C. for 1 hour or longer. The DNA was pelleted by centrifugation at 4° C. (13000 rpm, 25 minutes), dried in a Savant Speed Vac concentrator, and resuspended in 5 μL of TE buffer (pH 7.6). Thermal depurination (3×10 minutes at 100° C.) was performed and then 2.5 μL of formamide dye solution was added to the cooled samples. Thermally denatured samples were assayed by gel electrophoresis [8% denaturing gel with 8 M urea in TBE buffer (89 mM Tris-borate, 2 mM EDTA)] followed by autoradiography of the dried gel using Kodak BIOMAX XAR film and a Picker Spectra™ intensifying screen.

[8] = Mus musculus, L1210, read-out: IC50 (nM) L1210, natural enantiomer series, CBI-TMI derivatives

Compound | half-life [1] | IC50 [2] | potency compared with 2 ([2]; against H460/H596) | IC50 [3, 8] | fold less potent than 2 ([3]; against L1210, natural enantiomer) | IC50 [4] | stability in pH 7.0 phosphate buffer [5] | stability to treatment with BnSH in MeOH with NaHCO3 ([6]; BnSH in MeOH, NaHCO3, 2 hours, 23° C.) | stability to treatment with BnSH ([6]; BnSH in THF (2-72 hours, 23° C.) or MeOH (2-72 hours, 23° C.)) | stability to treatment with BnSH in THF with insoluble NaHCO3 ([6]; BnSH in THF, insoluble NaHCO3, 2 hours, 23° C.) | stability in MeOH ([6]; MeOH) | stability to NaHCO3 or Na2CO3 in MeOH ([6]; NaHCO3 or Na2CO3 in MeOH, 2 hours, 23° C.) | stability to acidic conditions [6] | stability on long term storage [6] | DNA alkylation efficiency, reduction relative to CBI-TMI (2) ([7]; w794 DNA, 4° C., 18 hours, natural enantiomers) | DNA alkylation sequence selectivity ([7]; w794 DNA, compared with CBI-TMI (2)) | DNA alkylation under forcing conditions ([7]; 37° C., 18 hours, data not shown) | observable DNA alkylation ([7]; w794 DNA, 4° C., 18 hours) | IC50 ([3]; read-out: IC50 (nM) L1210, natural enantiomer series, CBI-TMI derivatives) | DNA alkylation relative to that of 2 ([7]; w794 DNA, natural enantiomers)
COc1cc2cc(C(=O)N3C[C@@H](CCl)c4c3cc(ONC(=O)OC(C)(C)C)c3ccccc43)[nH]c2c(OC)c1OC [Compound 4] | 3 h | 1 nM | essentially equipotent | 0.5 nM | 10 fold | 6 nM | no significant cleavage of the prodrug was observed | cleaved to release 2 | stable | stable | stable | 2 was released slowly | surprisingly robust to acidic conditions | withstanding even long term storage effectively | 1,000-10,000 fold | identical sequence selectivity | – | – | – | –
COc1cc2cc(C(=O)N3C[C@@H](CCl)c4c3cc(ON3C(=O)c5ccccc5C3=O)c3ccccc43)[nH]c2c(OC)c1OC [Compound 7] | – | 0.5 nM | – | 0.06 nM | – | 5 nM | – | – | – | – | – | – | surprisingly robust to acidic conditions | noticeably deteriorating over time | – | – | – | – | – | –
COc1cc2cc(C(=O)N3C[C@@H](CCl)c4c3ccc3ccccc43)[nH]c2c(OC)c1OC [Compound 9] | – | > 100 nM | – | > 100 nM | – | > 100 nM | – | – | – | – | – | – | – | – | – | – | no appreciable DNA alkylation | failed to exhibit significant observable DNA alkylation | – | –
COc1cc2cc(C(=O)N3C[C@@H](CCl)c4c3cc(OC)c3ccccc43)[nH]c2c(OC)c1OC [Compound 10] | – | > 100 nM | – | > 100 nM | – | > 100 nM | – | – | – | – | – | – | – | – | – | – | – | failed to exhibit significant observable DNA alkylation | 50 nM | < 0.01%
